Residues, ends and D or L forms follow the SMILES beside them.
Key:
[1] = system: Enterobacter cloacae; assay: Inhibition zone assay (agar plate); format: cell-based; details: for Inhibition zones: in mm diameter: 50 nanomoles per well (3 mm diameter)
[2] = system: E. coli 25922; assay: Minimal inhibitory concentration (liquid culture); details: inoculum 1100 CFU/ml; a-b = highest concentration with growth - lowest without growth
[3] = system: E. coli 11775; assay: Minimal inhibitory concentration (liquid culture); details: for minimal inhibitory concentration (MIC): a-b = highest concentration with growth - lowest without growth
[4] = system: S. typhimurium; assay: Minimal inhibitory concentration (liquid culture); details: inoculum 8 × 10^6 CFU/ml; a-b = highest concentration with growth - lowest without growth
[5] = system: Salmonella typhi; format: cell-based; details: 50 nanomoles per well (3 mm diameter)
[6] = system: E. coli 23802; assay: Minimal inhibitory concentration (liquid culture); details: inoculum 5000 CFU/ml; a-b = highest concentration with growth - lowest without growth
[7] = system: Klebsiella pneumoniae; assay: Inhibition zone assay (agar plate); format: cell-based; details: for Inhibition zones: in mm diameter: 50 nanomoles per well (3 mm diameter)
[8] = system: E. coli D22; format: cell-based; details: 50 nanomoles per well (3 mm diameter)
[9] = system: A. calcoaceticus; assay: Minimal inhibitory concentration (liquid culture); details: inoculum 16 × 10^6 CFU/ml; a-b = highest concentration with growth - lowest without growth
[10] = system: Morganella morganii; assay: Inhibition zone assay (agar plate); format: cell-based; details: 50 nanomoles/well, 3 mm wells
[11] = system: Salmonella typhimurium; assay: Inhibition zone assay (agar plate); format: cell-based; details: for Inhibition zones: in mm diameter: 50 nanomoles per well (3 mm diameter)
[12] = system: M. morganii; assay: Minimal inhibitory concentration (liquid culture); details: inoculum 400 CFU/ml; a-b = highest concentration with growth - lowest without growth
[13] = system: Pseudomonas syringae; assay: Inhibition zone assay (agar plate); format: cell-based; details: for Inhibition zones: in mm diameter: 50 nanomoles per well (3 mm diameter)
[14] = system: Yersinia enterocolitica; assay: Inhibition zone assay (agar plate); format: cell-based; details: 50 nanomoles/well, 3 mm wells
[15] = system: Erwinia amylovora; assay: Inhibition zone assay (agar plate); format: cell-based; details: for Inhibition zones: in mm diameter: 50 nanomoles per well (3 mm diameter)
[16] = system: Y. enterocolitica; assay: Minimal inhibitory concentration (liquid culture); details: inoculum 5000 CFU/ml; a-b = highest concentration with growth - lowest without growth
[17] = system: Agrobacterium tumefaciens; assay: Inhibition zone assay (agar plate); format: cell-based; details: for Inhibition zones: in mm diameter: 50 nanomoles per well (3 mm diameter)
[18] = system: Acinetobacter calcoaceticus; assay: Inhibition zone assay (agar plate); format: cell-based; details: for Inhibition zones: in mm diameter: 50 nanomoles per well (3 mm diameter)
[19] = system: Rhizobium meliloti; assay: Inhibition zone assay (agar plate); format: cell-based; details: 50 nanomoles/well, 3 mm wells
[20] = system: Shigella dysenteriae; format: cell-based; details: 50 nanomoles per well (3 mm diameter)
[21] = system: Haemophilus influenzae; assay: Inhibition zone assay (agar plate); format: cell-based; details: 50 nanomoles/well, 3 mm wells
[22] = system: Escherichia coli (ATCC11775); assay: Inhibition zone assay (agar plate); format: cell-based; details: for Inhibition zones: in mm diameter: 50 nanomoles per well (3 mm diameter)
[23] = system: E. coli Apid^R; assay: Minimal inhibitory concentration (liquid culture); format: cell-based; details: inoculum 1000 CFU/ml; a-b = highest concentration with growth - lowest without growth
Description: For details see `Experimental Procedures`.

[24] = agar plate, 50 nanomoles/well, 3 mm wells

## CC(C)C[C@H](NC(=O)[C@H](CCCNC(=N)N)NC(=O)[C@@H]1CCCN1C(=O)[C@H](Cc1c[nH]cn1)NC(=O)[C@@H]1CCCN1C(=O)[C@@H]1CCCN1C(=O)[C@H](CCCNC(=N)N)NC(=O)[C@@H]1CCCN1C(=O)[C@@H]1CCCN1C(=O)[C@@H](NC(=O)[C@H](CCC(N)=O)NC(=O)[C@H](CCC(N)=O)NC(=O)[C@@H]1CCCN1C(=O)[C@H](CCCNC(=N)N)NC(=O)[C@@H]1CCCN1C(=O)[C@H](CCCCN)NC(=O)CN)C(C)C)C(=O)O [Ho +, G K P R P Q Q V P P R P P H P R L] (H-GKPRPQQVPPRPPHPRL-OH)
[1]
  Inhibition zones: in mm diameter: 15 mm
[1]; [24]
  inhibition zone diameter (number of plus signs): +++ ((+++) 10-14 mm)
[2]
  minimal inhibitory concentration (MIC): 0.1 to 0.5 µg/mL
[3]; inoculum 16 × 10^6 CFU/ml
  minimal inhibitory concentration (MIC): 0.1 to 0.5 µg/mL
[3]; inoculum 1200 CFU/ml
  minimal inhibitory concentration (MIC): 0.1 to 0.5 µg/mL
[3]; inoculum sizes differing by four orders of magnitude
  inoculum effect on inhibition of viability: equally well
[4]
  minimal inhibitory concentration (MIC): 0.5 to 1 µg/mL
[5]
  Inhibition zones: in mm diameter: 20 mm
[6]
  minimal inhibitory concentration (MIC): 0.5 to 1 µg/mL
[7]
  Inhibition zones: in mm diameter: 15 mm
[7]; [24]
  inhibition zone diameter (number of plus signs): +++ ((+++) 10-14 mm)
[8]
  Inhibition zones: in mm diameter: 14 mm
[9]
  minimal inhibitory concentration (MIC): 2 to 10 µg/mL
[10]
  inhibition zone diameter (number of plus signs): ++ ((++) 7-9 mm)
[11]
  Inhibition zones: in mm diameter: 14 mm
[11]; [24]
  inhibition zone diameter (number of plus signs): +++ ((+++) 10-14 mm)
[12]
  minimal inhibitory concentration (MIC): 1 to 5 µg/mL
[13]
  Inhibition zones: in mm diameter: 13 mm
[13]; [24]
  inhibition zone diameter (number of plus signs): +++ ((+++) 10-14 mm)
[14]
  inhibition zone diameter (number of plus signs): ++++ ((++++) 15-19 mm)
[15]
  Inhibition zones: in mm diameter: 12 mm
[15]; [24]
  inhibition zone diameter (number of plus signs): +++ ((+++) 10-14 mm)
[16]
  minimal inhibitory concentration (MIC): 1 to 5 µg/mL
[17]
  Inhibition zones: in mm diameter: 12 mm
[17]; [24]
  inhibition zone diameter (number of plus signs): ++ ((++) 7-9 mm)
[18]
  Inhibition zones: in mm diameter: 5 mm
[18]; [24]
  inhibition zone diameter (number of plus signs): + ((+) 5-6 mm)
[19]
  inhibition zone diameter (number of plus signs): ++++ ((++++) 15-19 mm)
[20]
  Inhibition zones: in mm diameter: 18 mm
[21]
  inhibition zone diameter (number of plus signs): +++ ((+++) 10-14 mm)
[22]
  Inhibition zones: in mm diameter: 15 mm
[22]; [24]
  inhibition zone diameter (number of plus signs): +++ ((+++) 10-14 mm)
[23]
  minimal inhibitory concentration (MIC): 1 to 5 µg/mL

## CC[C@H](C)[C@H](NC(=O)[C@@H]1CCCN1C(=O)[C@@H](NC(=O)[C@H](CCC(N)=O)NC(=O)[C@@H]1CCCN1C(=O)[C@H](CO)NC(=O)[C@@H]1CCCN1C(=O)[C@H](CCCNC(=N)N)NC(=O)[C@@H](N)CO)C(C)C)C(=O)N[C@@H](CCCNC(=N)N)C(=O)N1CCC[C@H]1C(=O)N[C@@H](CO)C(=O)N[C@@H](CCC(N)=O)C(=O)N1CCC[C@H]1C(=O)N[C@@H](CCCNC(=N)N)C(=O)N1CCC[C@H]1C(=O)N[C@@H](CCC(N)=O)C(=O)N1CCC[C@H]1C(=O)N[C@@H](Cc1ccccc1)C(=O)N[C@@H](CCCCN)C(=O)N1CCC[C@H]1C(=O)N[C@@H](CCCNC(=N)N)C(=O)N1CCC[C@H]1C(=O)N[C@@H](CCC(N)=O)C(=O)N[C@@H](CCC(N)=O)C(=O)N[C@H](C(=O)N1CCC[C@H]1C(=O)N1CCC[C@H]1C(=O)N[C@@H](CCCNC(=N)N)C(=O)N1CCC[C@H]1C(=O)N1CCC[C@H]1C(=O)N[C@@H](Cc1c[nH]cn1)C(=O)N1CCC[C@H]1C(=O)N[C@@H](CCCNC(=N)N)C(=O)N[C@@H](CC(C)C)C(=O)O)C(C)C [PAB-FP, SRPSPQVPIRPSQPRPQPFKPRPQQVPPRPPHPRL] (H-SRPSPQVPIRPSQPRPQPFKPRPQQVPPRPPHPRL-OH)
[1]
  Inhibition zones: in mm diameter: 11 mm
[5]
  Inhibition zones: in mm diameter: 13 mm
[7]
  Inhibition zones: in mm diameter: 8 mm
[8]
  Inhibition zones: in mm diameter: 14 mm
[11]
  Inhibition zones: in mm diameter: 7 mm
[15]
  Inhibition zones: in mm diameter: 5 mm
[17]
  Inhibition zones: in mm diameter: 7 mm
[18]
  Inhibition zones: in mm diameter: 8 mm
[20]
  Inhibition zones: in mm diameter: 12 mm
[22]
  Inhibition zones: in mm diameter: 10 mm

## CC[C@H](C)[C@H](NC(=O)[C@@H]1CCCN1C(=O)[C@@H](NC(=O)[C@H](CCC(N)=O)NC(=O)[C@@H]1CCCN1C(=O)[C@H](CO)NC(=O)[C@@H]1CCCN1C(=O)[C@H](CCCNC(=N)N)NC(=O)[C@@H](N)CO)C(C)C)C(=O)N[C@@H](CCCNC(=N)N)C(=O)N1CCC[C@H]1C(=O)N[C@@H](CO)C(=O)N[C@@H](CCC(N)=O)C(=O)N1CCC[C@H]1C(=O)N[C@@H](CCCNC(=N)N)C(=O)N1CCC[C@H]1C(=O)N[C@@H](CCC(N)=O)C(=O)N1CCC[C@H]1C(=O)NCC(=O)N[C@@H](CCCCN)C(=O)N1CCC[C@H]1C(=O)N[C@@H](CCCNC(=N)N)C(=O)N1CCC[C@H]1C(=O)N[C@@H](CCC(N)=O)C(=O)N[C@@H](CCC(N)=O)C(=O)N[C@H](C(=O)N1CCC[C@H]1C(=O)N1CCC[C@H]1C(=O)N[C@@H](CCCNC(=N)N)C(=O)N1CCC[C@H]1C(=O)N1CCC[C@H]1C(=O)N[C@@H](Cc1c[nH]cn1)C(=O)N1CCC[C@H]1C(=O)N[C@@H](CCCNC(=N)N)C(=O)N[C@@H](CC(C)C)C(=O)O)C(C)C [PAB-GP, SRPSPQVPIRPSQPRPQPGKPRPQQVPPRPPHPRL] (H-SRPSPQVPIRPSQPRPQPGKPRPQQVPPRPPHPRL-OH)
[1]
  Inhibition zones: in mm diameter: 13 mm
[5]
  Inhibition zones: in mm diameter: 13 mm
[7]
  Inhibition zones: in mm diameter: 9 mm
[8]
  Inhibition zones: in mm diameter: 14 mm
[11]
  Inhibition zones: in mm diameter: 6 mm
[13]
  Inhibition zones: in mm diameter: 6 mm
[15]
  Inhibition zones: in mm diameter: 5 mm
[17]
  Inhibition zones: in mm diameter: 8 mm
[18]
  Inhibition zones: in mm diameter: 9 mm
[20]
  Inhibition zones: in mm diameter: 11 mm
[22]
  Inhibition zones: in mm diameter: 10 mm

## CC[C@H](C)[C@H](NC(=O)[C@@H]1CCCN1C(=O)[C@@H](NC(=O)[C@H](CCC(N)=O)NC(=O)[C@@H]1CCCN1C(=O)[C@H](CO)NC(=O)[C@@H]1CCCN1C(=O)[C@H](CCCNC(=N)N)NC(=O)[C@@H](N)CO)C(C)C)C(=O)N[C@@H](CCCNC(=N)N)C(=O)N1CCC[C@H]1C(=O)N[C@@H](CO)C(=O)N[C@@H](CCC(N)=O)C(=O)N1CCC[C@H]1C(=O)N[C@@H](CCCNC(=N)N)C(=O)N1CCC[C@H]1C(=O)N[C@@H](CCC(N)=O)C(=O)N1CCC[C@H]1C(=O)NCC(=O)N[C@@H](CCCCN)C(=O)N1CCC[C@H]1C(=O)N[C@@H](CCCNC(=N)N)C(=O)N1CCC[C@H]1C(=O)N[C@@H](CCC(N)=O)C(=O)N[C@@H](CCC(N)=O)C(=O)N[C@H](C(=O)N1CCC[C@H]1C(=O)N1CCC[C@H]1C(=O)N[C@@H](CCCNC(=N)N)C(=O)N[C@H](C(=O)N1CCC[C@H]1C(=O)N[C@@H](Cc1c[nH]cn1)C(=O)N1CCC[C@H]1C(=O)N[C@@H](CCCNC(=N)N)C(=O)N[C@@H](CC(C)C)C(=O)O)[C@@H](C)O)C(C)C [PAB-GT, SRPSPQVPIRPSQPRPQPGKPRPQQVPPRTPHPRL] (H-SRPSPQVPIRPSQPRPQPGKPRPQQVPPRTPHPRL-OH)
[1]
  Inhibition zones: in mm diameter: 9 mm
[5]
  Inhibition zones: in mm diameter: 12 mm
[7]
  Inhibition zones: in mm diameter: 8 mm
[8]
  Inhibition zones: in mm diameter: 13 mm
[11]
  Inhibition zones: in mm diameter: 6 mm
[13]
  Inhibition zones: in mm diameter: 5 mm
[15]
  Inhibition zones: in mm diameter: 6 mm
[17]
  Inhibition zones: in mm diameter: 5 mm
[18]
  Inhibition zones: in mm diameter: 8 mm
[20]
  Inhibition zones: in mm diameter: 10 mm
[22]
  Inhibition zones: in mm diameter: 8 mm

Source: patent US5466671A, “Apidaecin-type peptide antibiotics with improved activities and/or different antibacterial spectrum” (priority 1994, dated 1995)
